Results as given in US20230346747A1, “DIALKYL T[…] THEIR […] USES” (CAAMTECH, INC., priority 2020, published 2023).

What was measured:
Type in all cases: in vitro ADME
[1] = In vitro plasma stability, mouse plasma; conditions: C57 mouse plasma, 37° C.; for Percent remaining after 2 h incubation / k: 1.0 µM; for half-life at 1 µM: both sexes, pH 7.4, read-out: T½ (converted); for k: pH 7.4
Source text: (§1) Human plasma (Bioreclamation, Cat#: BRH470404, male:female=1:1,v:v); Rat plasma (HDB, Cat#: HDB_RsP_20221120, male:female=1:1,v:v); C57 Mouse plasma (HDB, Cat#: HDB_MsP_202201120, male:female=1:1,v:v); Male cynomolgus monkey plasma (RILD, Cat#: MP210107-P). Analytical grade inorganic salts were purchased from Sinopharm Chemical Reagent Co. (Shanghai, China). HPLC grade organic solvents were purchased from Sigma-Aldrich, USA. Distilled water, prepared from demineralized water, was used throughout the study.
(§2) Stock solution of test compound was provided in 100% DMSO. The stock solution for each compound was diluted into 100 µM with ACN(50%) and then diluted into plasma of different species (pH 7.4) to achieve a final concentration of 1.0 µM.
(§3) 1.0 µM of test compound in duplicate was incubated in plasma at 37° C. Aliquots of 50 µL or 80 µL sample were collected at 0, 0.25, 0.5, 1 and 2 h.
(§4) An aliquot of 50 µL samples were collected at various time points, and mixed with 300 µL of ice-cold 100% acetonitrile containing internal standard. After centrifuging the plate at 4000 rpm for 20 min, 50 µL of supernatants were added with 100 µL H2O, mix well and analyzed with UPLC-MS/MS.
(§5) A Waters liquid chromatographic system was used. Detection was performed on an API4000 Q-Trap and API5500 mass spectrometer equipped with TurbolonSpray (ESI) Interface (Applied Biosystems, Concord, Ontario, Canada). Analyst 1.5 and 1.6.2 software packages (Applied Biosystems) were used to control the LC-MS/MS system, as well as for data acquisition and processing.
(§6) Chromatographic separation was achieved on the Waters ACQUITY UPLC BEH C18 column (50*2.1 mm ID, 1.7 µm) and Thermo Scientific AccucoreTM PFP column(100*2.1 ID mm, 2.6 µm). The column temperature was maintained at ambient temperature (25° C.). The flow rate was maintained at 0.6 mL/min and the mobile phases used were according to Tables 5-7.
(§7) The peak area ratio of test compound to internal standard is plotted as a percentage of the relevant zero time point control (% Remained) for each reaction. The rate of metabolism (k) is the slope of the linear regression from log percentage remaining versus incubation time.

[2] = In vitro plasma stability, monkey plasma; conditions: cynomolgus monkey plasma, 37° C.; for half-life at 1 µM: male, pH 7.4, read-out: T½ (converted)
Source text: as §1, §2, §3, §4, §5, §6, §7

[3] = In vitro plasma stability, rat plasma; conditions: SD rat plasma, 37° C.; for half-life at 1 µM: both sexes, pH 7.4, read-out: T½ (converted)
Source text: as §1, §2, §3, §4, §5, §6, §7

[4] = In vitro plasma stability, human plasma; conditions: 37° C.; for Percent remaining after 2 h incubation / k: 1.0 µM; for half-life at 1 µM: both sexes, pH 7.4, read-out: T½ (converted); for k: pH 7.4, slope of log % remaining versus incubation time
Source text: as §1, §2, §3, §4, §5, §6, §7

SMILES	Percent remaining after 2 h incubation [1] [%]	half-life at 1 µM [1] [h]	Percent remaining after 2 h incubation ([2]; 1.0 µM) [%]	half-life at 1 µM [2] [h]	Percent remaining after 2 h incubation ([3]; 1.0 µM) [%]	half-life at 1 µM [3] [h]	Percent remaining after 2 h incubation [4] [%]	half-life at 1 µM [4] [h]	k [1]	k ([2]; 1.0 µM, pH 7.4)	k ([3]; 1.0 µM, pH 7.4)	k [4]	T½ ([2]; 1.0 µM, pH 7.4)	T½ ([3]; 1.0 µM, pH 7.4)
CC(=O)Oc1cccc2[nH]cc(CCN(C)C)c12 [Compound 4-AcO-DMT, 4-acetoxy-N,N-dimethyltryptamine]	0.00	< 0.125	0.00	< 0.125	0.00	< 0.125	0.00	< 0.125	–	–	–	–	–	–
COc1ccc([C@@H]2Sc3ccccc3N(CCN(C)C)C(=O)[C@@H]2OC(C)=O)cc1 [Diltiazem]	87.9	10.6	90.5	12.8	78.8	6.75	80.5	6.4	–	–	–	–	–	–
CCN(CC)CCOC(=O)c1ccc(N)cc1 [Procaine]	0.00	< 0.125	0.00	–	52.0	2	0.00	< 0.125	11.212	26.073	0.347	–	–	–
CN(C)CCc1c[nH]c2cccc(O)c12 [Psilocin]	89.2	14.5	92.8	17.9	86.2	7.54	97.9	20.5	0.048	0.039	0.092	0.034	–	–
CN(C)CCc1c[nH]c2cccc(OP(=O)(O)O)c12 [Psilocybin]	93.2	91.5	113	–	113	–	19.4	0.82	0.008	-0.046	-0.066	0.849	stable	stable
